Test results: patent US12145944B2, “Imidazopyrimidines as EED inhibitors and the use thereof” (THE REGENTS OF THE UNIVERSITY OF MICHIGAN, priority 2019, dated 2024)
pIC50: −log10 of the molar value.

Each compound was assayed on KARPAS422 human B cell lymphoma cell (assay: Cell proliferation, KARPAS422, 7 day treatment (WST-8)). Settings: Homo sapiens, KARPAS-422, 168 h, anti-proliferative IC50, Karpas 422 cell line, 7 day treatment; read-out: Karpas Cell line.
Type: cell-based
Experimental: “N/A” stands for “not assessed”.
Analysis of Cell Proliferation:
To assess the effect of PRC2 inhibition on cell growth, cells were seeded in 96-well cell culture plates at a density of 2 000-3 000 cells/well in 200 µL of culture medium, and treated with serially diluted compounds for 7 days at 37° C. in an atmosphere of 5% CO2. Cell growth was evaluated by a […] WST-8 assay (Dojindo Molecular Technologies) using a Tecan Infinite M1000 multimode microplate reader (Tecan, Morrisville, NC). The WST-8 reagent was added to the plate, incubated for 1-4 h, and read at 450 nm. The readings were normalized to the DMSO-treated cells, and the IC50 was calculated by nonlinear regression analysis using GraphPad Prism 6 software

`CNC(=O)c1ncn2c(NCc3c(F)ccc(F)c3OC)ncc(-c3ccccc3)c12` [compound 138, 5-((3,6-difluoro-2-methoxybenzyl)amino)-N-methyl-8-phenylimidazo[1,5-c]pyrimidine-1-carboxamide] and `CNC(=O)c1ncn2c(NCc3c(F)ccc(OC)c3Cl)ncc(-c3ccccc3)c12` [compound 140, 5-((2-chloro-6-fluoro-3-methoxybenzyl)amino)-N-methyl-8-phenylimidazo[1,5-c]pyrimidine-1-carboxamide] cannot be ordered by pIC50: < 7.00 for the first, < 7.00 for the second.

First: CC(F)(F)CN1Cc2nc(C(F)(F)F)ccc2-c2cnc(NCc3c(F)ccc4c3CCO4)n3cnc(c23)C1=O [compound 77, 4-(2,2-difluoropropyl)-12-(((5-fluoro-2,3-dihydrobenzofuran-4-yl)methyl)amino)-7-(trifluoromethyl)-4,5-dihydro-3H-2,4,6,11,12a-pentaazabenzo[4,5]cycloocta[1,2,3-cd]inden-3-one]
Second: COCCN1Cc2nc(C(F)(F)F)ccc2-c2cnc(NCc3c(F)ccc4c3CCO4)n3cnc(c23)C1=O [compound 57, 12-(((5-fluoro-2,3-dihydrobenzofuran-4-yl)methyl)amino)-4-(2-methoxyethyl)-7-(trifluoromethyl)-4,5-dihydro-3H-2,4,6,11,12a-pentaazabenzo[4,5]cycloocta[1,2,3-cd]inden-3-one]
The pIC50 of the first is 0.93 log units lower: 7.65 for the first, 8.58 for the second.

First: CC(C)(O)CN1Cc2cc(C(F)(F)F)ncc2-c2cnc(NCc3c(F)ccc4c3CCO4)n3cnc(c23)C1=O [compound 48, 12-(((5-fluoro-2,3-dihydrobenzofuran-4-yl)methyl)amino)-4-(2-hydroxy-2-methylpropyl)-7-(trifluoromethyl)-4,5-dihydro-3H-2,4,8,11,12a-pentaazabenzo[4,5]cycloocta[1,2,3-cd]inden-3-one]
Second: O=C1c2ncn3c(NCc4c(F)ccc5c4CCO5)ncc(c23)-c2ccc(C(F)(F)F)cc2CN1CC(F)F [compound 81, 4-(2,2-difluoroethyl)-12-(((5-fluoro-2,3-dihydrobenzofuran-4-yl)methyl)amino)-7-(trifluoromethyl)-4,5-dihydro-3H-2,4,11,12a-tetraazabenzo[4,5]cycloocta[1,2,3-cd]inden-3-one]
The pIC50 of the first is 0.29 log units higher: 9.13 for the first, 8.84 for the second.

`CCOC(=O)c1ncn2c(NCc3ccco3)ncc(-c3ccccc3)c12` [Cpd. No. 127, ethyl 5-((furan-2-ylmethyl)amino)-8-phenylimidazo[1,5-c]pyrimidine-1-carboxylate] and `CCOC(=O)c1ncn2c(NCc3cc(OC)ccc3F)ncc(-c3ccccc3)c12` [compound 132, ethyl 5-((2-fluoro-5-methoxybenzyl)amino)-8-phenylimidazo[1,5-c]pyrimidine-1-carboxylate] cannot be ordered by pIC50: < 7.00 for the first, < 7.00 for the second.

First: O=C1c2ncn3c(NCc4c(F)ccc5c4CCO5)ncc(c23)-c2ccc(C(F)(F)F)nc2CN1CC1CCOCC1 [compound 46, 12-(((5-fluoro-2,3-dihydrobenzofuran-4-yl)methyl)amino)-4-((tetrahydro-2H-pyran-4-yl)methyl)-7-(trifluoromethyl)-4,5-dihydro-3H-2,4,6,11,12a-pentaazabenzo[4,5]cycloocta[1,2,3-cd]inden-3-one]
Second: O=C1c2ncn3c(NCc4c(F)ccc5c4CCO5)ncc(c23)-c2ccc(C(F)(F)F)nc2CN1C1CCOCC1 [compound 51, 12-(((5-fluoro-2,3-dihydrobenzofuran-4-yl)methyl)amino)-4-(tetrahydro-2H-pyran-4-yl)-7-(trifluoromethyl)-4,5-dihydro-3H-2,4,6,11,12a-pentaazabenzo[4,5]cycloocta[1,2,3-cd]inden-3-one]
The pIC50 of the first is 0.56 log units higher: 9.24 for the first, 8.68 for the second. The first is the more potent here.

Going from `O=C1OCc2cc(OC(F)(F)F)ccc2-c2cnc(NCc3c(F)ccc4c3CCO4)n3cnc1c23` [compound 31, 12-(((5-fluoro-2,3-dihydrobenzofuran-4-yl)methyl)amino)-7-(trifluoromethoxy)-3H,5H-4-oxa-2,11,12a-triazabenzo[4,5]cycloocta[1,2,3-cd]inden-3-one] to `O=C1c2ncn3c(NCc4c(F)ccc5c4CCO5)ncc(c23)-c2ccc(C(F)(F)F)cc2CN1C1CCOCC1` [compound 60, 12-(((5-fluoro-2,3-dihydrobenzofuran-4-yl)methyl)amino)-4-(tetrahydro-2H-pyran-4-yl)-7-(trifluoromethyl)-4,5-dihydro-3H-2,4,11,12a-tetraazabenzo[4,5]cycloocta[1,2,3-cd]inden-3-one], the pIC50 rises from 8.43 to 8.93 (0.50 log units). The second is the more potent here.

Compared with `CCOC(=O)c1ncn2c(NCc3c(F)ccc4c3CCO4)ncc(-c3ccccc3)c12` [compound 135, ethyl 5-(((5-fluoro-2,3-dihydrobenzofuran-4-yl)methyl)amino)-8-phenylimidazo[1,5-c]pyrimidine-1-carboxylate], `CNC(=O)c1ncn2c(NCc3c(F)ccc4c3CCO4)ncc(-c3ccccc3)c12` [compound 142, 5-(((5-fluoro-2,3-dihydrobenzofuran-4-yl)methyl)amino)-N-methyl-8-phenylimidazo[1,5-c]pyrimidine-1-carboxamide] is lower in pIC50: 8.15 for the first, < 7.00 for the second.

First: COc1cccc(F)c1CNc1ncc2c3c(ncn13)C(=O)N(C1CC1)Cc1nc(C(F)(F)F)ccc1-2 [compound 69, 4-cyclopropyl-12-((2-fluoro-6-methoxybenzyl)amino)-7-(trifluoromethyl)-4,5-dihydro-3H-2,4,6,11,12a-pentaazabenzo[4,5]cycloocta[1,2,3-cd]inden-3-one]
Second: CC(C)N1Cc2nc(C(F)(F)F)ccc2-c2cnc(NCc3c(F)ccc4c3CCO4)n3cnc(c23)C1=O [compound 59, 12-(((5-fluoro-2,3-dihydrobenzofuran-4-yl)methyl)amino)-4-isopropyl-7-(trifluoromethyl)-4,5-dihydro-3H-2,4,6,11,12a-pentaazabenzo[4,5]cycloocta[1,2,3-cd]inden-3-one]
The pIC50 of the first is lower: < 7.00 for the first, 7.40 for the second.

Compared with `O=C1c2ncn3c(NCc4c(F)ccc5c4CCO5)ncc(c23)-c2ccc(C(F)(F)F)cc2CN1CC1CCOCC1` [compound 66, 12-(((5-fluoro-2,3-dihydrobenzofuran-4-yl)methyl)amino)-4-((tetrahydro-2H-pyran-4-yl)methyl)-7-(trifluoromethyl)-4,5-dihydro-3H-2,4,11,12a-tetraazabenzo[4,5]cycloocta[1,2,3-cd]inden-3-one], `Cc1nn(C)c2c1-c1cnc(NCc3c(F)ccc4c3CCO4)n3cnc(c13)C(=O)N(C1CC1)C2` [compound 56, 4-cyclopropyl-11-(((5-fluoro-2,3-dihydrobenzofuran-4-yl)methyl)amino)-6,8-dimethyl-5,6-dihydro-2,4,6,7,10,11a-hexaazacyclopenta[4,5]cycloocta[1,2,3-cd]inden-3(4H)-one] is 1.45 log units lower in pIC50: 9.13 for the first, 7.68 for the second. The first is the more potent here.

`Fc1ccc2c(c1CNc1ncc(-c3ccccc3)c3c(C(F)(F)F)ncn13)CCO2` [Cpd. No. 143, N-((5-fluoro-2,3-dihydrobenzofuran-4-yl)methyl)-8-phenyl-1-(trifluoromethyl)imidazo[1,5-c]pyrimidin-5-amine] and `CNC(=O)c1ncn2c(NCc3c(F)cccc3OC)ncc(-c3ccccc3)c12` [compound 137, 5-((2-fluoro-6-methoxybenzyl)amino)-N-methyl-8-phenylimidazo[1,5-c]pyrimidine-1-carboxamide] cannot be ordered by pIC50: < 7.00 for the first, < 7.00 for the second.
